Key:
P. mirab. MGH-1 = experiment: In vitro antibacterial activity, MIC (modified Autotiter method); assay type: cell-based, Proteus mirabilis; details: Proteus mirabilis, 20 h, 18-20 hours at 37° C.; read-out: MIC P. mirab. MGH-1
In short: (§1)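 Double-strength inoculated semisynthetic broth containing glucose was dispensed onto compound dilutions. These dilutions, twofold each, were prepared in sterile water by the Autotiter from a 1,000 mcg./ml. solution, covering final levels of 500 to 0.06 mcg./ml.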

K. pneum. 39645 = experiment: as above; assay type: cell-based, Klebsiella pneumoniae; details: Klebsiella pneumoniae, 20 h, 18-20 hours at 37° C.; read-out: MIC K. pneum. 39645
In short: as §1

T. menta. 9129 = experiment: In vitro antifungal activity, MIC (modified Autotiter method); assay type: cell-based, Trichophyton mentagrophytes; details: Trichophyton mentagrophytes, 20 h, 18-20 hours at 37° C.; read-out: MIC T. menta. 9129
In short: as §1

C. albicans Wisc. = experiment: as above; assay type: cell-based, Candida albicans; details: Candida albicans, 20 h, 18-20 hours at 37° C.; read-out: MIC C. albicans Wisc.
In short: as §1

C. albicans 10231 = experiment: as above; assay type: cell-based, Candida albicans; details: Candida albicans, 10231, 20 h, 18-20 hours at 37° C.; read-out: MIC C. albicans 10231
In short: as §1

Ps. aerug. MGH-2 = experiment: In vitro antibacterial activity, MIC (modified Autotiter method); assay type: cell-based, Pseudomonas aeruginosa; details: Pseudomonas aeruginosa, 20 h, 18-20 hours at 37° C.; read-out: MIC Ps. aerug. MGH-2
In short: as §1

S. Aureus Smith = experiment: as above; assay type: cell-based, Staphylococcus aureus; details: Staphylococcus aureus, 20 h, 18-20 hours at 37° C.; read-out: MIC S. Aureus Smith
In short: as §1

A. niger 16404 = experiment: In vitro antifungal activity, MIC (modified Autotiter method); assay type: cell-based, Aspergillus niger; details: Aspergillus niger, 16404, 20 h, 18-20 hours at 37° C.; read-out: MIC A. niger 16404
In short: as §1

E. coli AB1932-1 = experiment: In vitro antibacterial activity, MIC (modified Autotiter method); assay type: cell-based, Escherichia coli; details: Escherichia coli, AB19321, 20 h, 18-20 hours at 37° C.; read-out: MIC E. coli AB1932-1
In short: as §1

E. coli 100/B22 = experiment: as above; assay type: cell-based, Escherichia coli; details: Escherichia coli, 100/B22, 20 h, 18-20 hours at 37° C.; read-out: MIC E. coli 100/B22
In short: as §1

E. coli Vogel = experiment: as above; assay type: cell-based, Escherichia coli; details: Escherichia coli, 20 h, 18-20 hours at 37° C.; read-out: MIC E. coli Vogel
In short: as §1

[1] = test system: Herpes simplex type 2 virus; experiment: Virucidal activity in vitro (plaque inhibition test); assay type: cell-based; details: 2 mg. of test compound on growth medium
Procedure: Virucidal activity of representative examples against Herpes simplex type 2 virus was determined in vitro employing a procedure similar to the plaque inhibition test for detection of specific inhibitors of DNA-containing viruses published by E. C. Herrmann, Jr., Proc. Soc. Exp. Biol. Med. 107, 142 (1961) wherein 2 mg. of the test compound was placed on the surface of the growth medium.

S. pyogen. C203 = experiment: In vitro antibacterial activity, MIC (modified Autotiter method); assay type: cell-based, Streptococcus pyogenes; details: Streptococcus pyogenes, 20 h, 18-20 hours at 37° C.; read-out: MIC S. pyogen. C203
In short: as §1

SMILES | MIC (P. mirab. MGH-1) [µg/mL] | MIC (K. pneum. 39645) [µg/mL] | MIC (T. menta. 9129) [µg/mL] | MIC (C. albicans Wisc.) [µg/mL] | MIC (C. albicans 10231) [µg/mL] | MIC (Ps. aerug. MGH-2) [µg/mL] | MIC (S. Aureus Smith) [µg/mL] | MIC (A. niger 16404) [µg/mL] | MIC (E. coli AB1932-1) [µg/mL] | MIC (E. coli 100/B22) [µg/mL] | MIC (E. coli Vogel) [µg/mL] | Virucidal activity against Herpes simplex type 2 virus [1] | MIC (S. pyogen. C203) [µg/mL]
CCCCCCNc1cc[n+](CCCC[n+]2ccc(NCCCCCC)cc2)cc1 [Example 16, 1,4-bis-[4-(hexylamino)-1-pyridinium]butane dibromide] | > 125 | > 125 | 15.6 | 125 | 125 | > 250 | 7.8 | 125 | 62.5 | 125 | 125 | inactive | 1.95
CCCCCCNc1cc[n+](CCCCCC[n+]2ccc(NCCCCCC)cc2)cc1 [Example 17, 1,6-bis-[4-(hexylamino)-1-pyridinium]-hexane dibromide] | > 250 | 125 | – | 15.6 | 15.6 | > 125 | 0.49 | 7.8 | 7.8 | 0.78 | 31.3 | active | > 250
CCCCCCNc1cc[n+](CCCCCCC[n+]2ccc(NCCCCCC)cc2)cc1 [Example 18, 1,7-bis-[4-(hexylamino)-1-pyridinium]heptane dibromide] | > 125 | 15.6 | 15.6 | 7.8 | 6.25 | > 125 | 0.39 | 15.6 | 7.8 | 7.8 | 15.6 | active | 0.49
CCCCCCCNc1cc[n+](CCCCCCC[n+]2ccc(NCCCCCCC)cc2)cc1 [Example 21, 1,7-bis-[4-(heptylamino)-1-pyridinium]heptane dibromide] | 125 | 3.9 | 3.9 | 3.9 | 3.9 | 125 | 0.24 | 15.6 | 1.95 | 1.95 | 1.95 | active | 0.98
CCCCCCNc1cc[n+](CCCCC[n+]2ccc(NCCCCCC)cc2)cc1 [Example 31, 1,5-bis-[4-(hexylamino)-1-pyridinium]pentane dibromide] | > 250 | > 125 | 31.3 | 62.5 | 31.3 | > 125 | 1.95 | 31.3 | 31.3 | 62.5 | 125 | active | 0.98
c1c[n+](CCCC[n+]2ccc(NC3CCCCC3)cc2)ccc1NC1CCCCC1 [Example 34, 1,4-bis-[4-(cyclohexylamino)-1-pyridinium]butane dibromide] | > 500 | > 500 | 125 | 500 | 500 | > 500 | 125 | 500 | 125 | 125 | 125 | inactive | 31.3
c1c[n+](CCCCC[n+]2ccc(NC3CCCCC3)cc2)ccc1NC1CCCCC1 [Example 35, 1,5-bis-[4-(cyclohexylamino)-1-pyridinium]pentane dibromide] | > 500 | > 500 | 125 | 500 | 500 | > 500 | 125 | 500 | > 500 | > 500 | > 500 | active | 15.6
